These are literature values, as cited in paper PMC3249774 (Research in Pharmaceutical Sciences, 2011).

The subject of this series is neuroblastoma cells. Conditions: cells treated with DFO.

For the compound `CC(=O)N(O)CCCCCNC(=O)CCC(=O)N(O)CCCCCNC(=O)CCC(=O)N(O)CCCCCN` [DFO], the “Sensitivity of neuroblastoma cells relative to normal bone marrow cells” value is listed as 10 fold.
